In experiment [1] the target is Adenosine Transport (cs + es). Kind of experiment: Adenosine Transport (cs + es) (Human); [3H]-Adenosine. The format is biochemical. The conditions noted are these: reference compound, QA/QC; read-out: Ref Kj.
Another experiment deals with Oxytocin. Type of experiment: binding. The conditions noted are these: read-out: Ref Kj.
In the next experiment the target is T1, Thromboxane A2 (Homo sapiens, UniProt P21731).
T1 construct: from human cell lines; endogenous in cells
T1 sequence (P21731 whole entry): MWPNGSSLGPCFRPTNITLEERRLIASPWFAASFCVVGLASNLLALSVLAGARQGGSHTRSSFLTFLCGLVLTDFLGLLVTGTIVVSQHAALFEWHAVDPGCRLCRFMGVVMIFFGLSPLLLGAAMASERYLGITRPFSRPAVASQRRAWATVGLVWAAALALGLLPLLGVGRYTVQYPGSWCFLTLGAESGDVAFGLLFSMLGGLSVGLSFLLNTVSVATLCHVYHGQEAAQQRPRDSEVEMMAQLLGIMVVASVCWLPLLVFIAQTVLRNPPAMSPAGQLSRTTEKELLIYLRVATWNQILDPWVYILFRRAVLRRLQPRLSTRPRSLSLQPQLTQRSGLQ
As to the kind of experiment: Thromboxane A2 (Human); [3H]SQ 29,548. To be noted: reference compound, QA/QC; read-out: Ref Kj. The format is binding.

Another experiment addresses T2, Sigma 1 (Cavia porcellus, UniProt Q60492).
T2 construct: Fresh guinea pig whole brain was obtained following decapitation; from tissue; host or cells: guinea pig whole brain membranes
As to the kind of experiment: Sigma 1; [3H]-(+)-Pentazocine. Type of experiment: binding, guinea pig. To be noted: reference compound, QA/QC; read-out: Ref Kj.

The target in experiment [2] is T3, Monoamine Oxidase A, Peripheral (Rattus norvegicus, UniProt P21396).
T3 construct: no other source notation after assay name denotes animal cell or animal tissue source; from tissue
T3 sequence (P21396 whole entry, looked up): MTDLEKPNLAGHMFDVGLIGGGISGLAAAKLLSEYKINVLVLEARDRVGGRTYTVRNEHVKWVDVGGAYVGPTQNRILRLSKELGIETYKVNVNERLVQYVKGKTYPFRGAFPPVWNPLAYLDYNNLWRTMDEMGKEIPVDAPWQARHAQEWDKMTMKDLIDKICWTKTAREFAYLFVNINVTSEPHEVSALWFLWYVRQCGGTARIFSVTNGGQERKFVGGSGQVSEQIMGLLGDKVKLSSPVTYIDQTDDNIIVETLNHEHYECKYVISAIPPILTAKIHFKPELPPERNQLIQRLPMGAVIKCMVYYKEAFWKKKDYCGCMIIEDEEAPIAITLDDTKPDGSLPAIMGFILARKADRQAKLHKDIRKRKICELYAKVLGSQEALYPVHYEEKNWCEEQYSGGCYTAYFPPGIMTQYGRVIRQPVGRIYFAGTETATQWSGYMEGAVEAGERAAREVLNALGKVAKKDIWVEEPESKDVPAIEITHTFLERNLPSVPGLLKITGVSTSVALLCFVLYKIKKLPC
As to the kind of experiment: biochemical. The conditions noted are these: reference compound, QA/QC; read-out: Ref Kj.

The target of experiment [3] is Somatostatin, Non-selective. Kind of experiment: Somatostatin, Non-selective; [125]-Somatostatin-14 (Tyr11). The format is binding. To be noted: reference compound, QA/QC; read-out: Ref Kj.
The target of the next experiment is T4, Elastase (Homo sapiens, UniProt P08246).
T4 construct: from human cell lines; endogenous in cells
T4 sequence (P08246 30-267): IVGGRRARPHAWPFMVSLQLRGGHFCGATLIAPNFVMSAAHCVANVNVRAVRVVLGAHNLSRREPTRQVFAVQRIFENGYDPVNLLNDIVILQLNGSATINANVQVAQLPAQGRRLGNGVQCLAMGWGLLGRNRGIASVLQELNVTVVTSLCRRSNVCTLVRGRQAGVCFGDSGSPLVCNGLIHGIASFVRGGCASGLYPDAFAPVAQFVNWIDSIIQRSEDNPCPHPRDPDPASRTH
Kind of experiment: Elastase (Human); substrate MeO-Suc-Ala-Ala-Pro-Val-pNA. The format is biochemical. To be noted: reference compound, QA/QC; read-out: Ref Kj.

In the next experiment the target is Serotonin, 5HT3 (Mus musculus, UniProt P23979). As to the kind of experiment: biochemical. The conditions noted are these: radioligand, assay parameter; read-out: KD of the 5HT3 receptor for the radioligand. Type of experiment: binding.
Chain of Serotonin, 5HT3 (P23979 24-489): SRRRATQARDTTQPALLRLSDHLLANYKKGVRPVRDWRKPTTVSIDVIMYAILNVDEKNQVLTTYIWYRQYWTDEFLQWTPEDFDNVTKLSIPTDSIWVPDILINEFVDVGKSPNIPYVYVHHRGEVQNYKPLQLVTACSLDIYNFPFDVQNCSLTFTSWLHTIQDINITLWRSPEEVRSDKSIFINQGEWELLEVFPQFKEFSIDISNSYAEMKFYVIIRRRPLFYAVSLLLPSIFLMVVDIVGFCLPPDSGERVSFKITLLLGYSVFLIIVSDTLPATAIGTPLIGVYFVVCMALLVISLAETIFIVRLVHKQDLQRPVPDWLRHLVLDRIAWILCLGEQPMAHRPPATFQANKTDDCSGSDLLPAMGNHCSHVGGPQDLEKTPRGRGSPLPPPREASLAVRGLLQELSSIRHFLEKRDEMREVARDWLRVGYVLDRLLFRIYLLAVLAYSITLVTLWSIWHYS
A further experiment has as its target Dopamine Transporter (Cavia porcellus, UniProt H0WCX4). Kind of experiment: biochemical. The format is binding, Guinea Pig. The conditions noted are these: read-out: Kd for the receptor.
The target in experiment [4] is Choline Acetyltransferase. As to the kind of experiment: Choline Acetyltransferase; substrate [14C]Acetyl Coenzyme. The format is biochemical. To be noted: reference compound, QA/QC; read-out: Ref Kj.
Experiment [5] addresses Thyrotropin Releasing Hormone, TRH. As to the kind of experiment: Thyrotropin Releasing Hormone, TRH; [3H]-(3MeHis2)TRH. The format is binding. The conditions noted are these: reference compound, QA/QC; read-out: Ref Kj.
The next experiment concerns the target Glutamate, MK-801 Site. As to the kind of experiment: Glutamate, MK-801 Site; [3H]MK-801. The conditions noted are these: reference compound, QA/QC; read-out: Ref Kj. Type of experiment: binding.
Experiment [6] addresses Glutamate, NMDA, Phencyclidine Site. Kind of experiment: Glutamate, NMDA, Phencyclidine Site; [3H]TCP. The format is binding. To be noted: reference compound, QA/QC; read-out: Ref Kj.
The target in another experiment is Vasopressin, V1A (Homo sapiens, UniProt P37288). Kind of experiment: Vasopressin, V1A (Human); [125I]-Via Antagonist. The format is binding. To be noted: read-out: Ref Kj.
Chain of Vasopressin, V1A (P37288 whole entry): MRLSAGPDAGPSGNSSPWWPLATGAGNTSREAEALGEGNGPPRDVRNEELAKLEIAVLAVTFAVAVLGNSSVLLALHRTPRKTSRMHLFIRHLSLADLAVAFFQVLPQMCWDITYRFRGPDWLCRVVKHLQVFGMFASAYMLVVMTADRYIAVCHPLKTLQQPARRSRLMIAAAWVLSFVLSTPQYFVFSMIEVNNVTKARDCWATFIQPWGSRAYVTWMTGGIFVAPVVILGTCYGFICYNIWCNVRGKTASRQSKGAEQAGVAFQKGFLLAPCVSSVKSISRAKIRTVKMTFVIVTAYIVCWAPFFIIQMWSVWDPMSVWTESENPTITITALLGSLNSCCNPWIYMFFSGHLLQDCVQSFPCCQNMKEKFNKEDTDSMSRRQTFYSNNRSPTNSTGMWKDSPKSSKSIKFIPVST
Experiment [7] concerns the target T5, Protein Tyrosine Phosphatase, PTP-LAR-D1 (Homo sapiens, UniProt P10586).
T5 construct: PTP-LAR-D1
As to the kind of experiment: Protein Tyrosine Phosphatase, PTP-LAR-D1 (Human); substrate pNPP. The conditions noted are these: read-out: Ref Kj. The format is biochemical.

The target of experiment [8] is Protein Phosphatase, PP2B (Calcineurin). As to the kind of experiment: Protein Phosphatase, PP2B (Calcineurin); substrate pNPP. To be noted: read-out: Ref Kj. The format is biochemical.
Experiment [9] has as its target Protein Tyrosine Phosphatase, PTP-CD45 (Homo sapiens, UniProt P08575). As to the kind of experiment: Protein Tyrosine Phosphatase, PTP-CD45 (Human); substrate pNPP. Type of experiment: biochemical. The conditions noted are these: read-out: Ref Kj.
Experiment [10] has as its target Protein Tyrosine Phosphatase, PTP-B. As to the kind of experiment: Protein Tyrosine Phosphatase, PTP-B (Human); substrate pNPP. The format is biochemical. The conditions noted are these: read-out: Ref Kj.
Experiment [11] concerns Protein Tyrosine Phosphatase, PTP-Cell. As to the kind of experiment: Protein Tyrosine Phosphatase, PTP-Cell (Human); substrate pNPP. The conditions noted are these: read-out: Ref Kj. Type of experiment: biochemical.
The target in the next experiment is Angiotensin II, AT2. The format is binding. To be noted: read-out: Ref Kj.
The target in experiment [12] is Cholecystokinin, CCK1 (CCKA). As to the kind of experiment: Cholecystokinin, CCK1 (CCKA); [125I]CCK-8. Type of experiment: binding. The conditions noted are these: read-out: Ref Kj.
For experiment [13], the target named is Cholecystokinin, CCK2 (CCKB). As to the kind of experiment: Cholecystokinin, CCK2 (CCKB); [125I]CCK-8. The format is binding. The conditions noted are these: read-out: Ref Kj.
Experiment [14] concerns the target Protein Phosphatase, PP2A (Homo sapiens, UniProt P67775). Kind of experiment: Protein Phosphatase, PP2A (Human); substrate DiFMUP. The format is biochemical. To be noted: reference compound, QA/QC; read-out: Ref Kj.
In experiment [15] the target is Potassium Channel, Ca2+ Act., VS. As to the kind of experiment: Potassium Channel, Ca2+ Act., VS; [125I]Charybdotoxin. Type of experiment: binding. The conditions noted are these: reference compound, QA/QC; read-out: Ref Kj.
The target of another experiment is Neurokinin, NK1. Type of experiment: binding. The conditions noted are these: read-out: Ref Kj.
Experiment [16] addresses Vasoactive Intestine Peptide, Non-selective. Type of experiment: binding. To be noted: read-out: Ref Kj.
A further experiment has as its target Calcium Channel, Type N. The format is binding. The conditions noted are these: read-out: Ref Kj.

Structures can show the parent of a compound that is named as a salt.

T5 sequence (P10586 1352-1607): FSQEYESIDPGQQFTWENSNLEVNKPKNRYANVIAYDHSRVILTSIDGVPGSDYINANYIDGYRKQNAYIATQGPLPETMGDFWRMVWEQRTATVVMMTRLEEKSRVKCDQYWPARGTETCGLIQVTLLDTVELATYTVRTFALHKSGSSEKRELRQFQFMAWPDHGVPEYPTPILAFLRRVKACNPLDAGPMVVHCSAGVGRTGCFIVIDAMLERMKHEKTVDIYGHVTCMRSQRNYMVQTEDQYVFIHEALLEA
Chain of Protein Tyrosine Phosphatase, PTP-CD45 (P08575 26-1306): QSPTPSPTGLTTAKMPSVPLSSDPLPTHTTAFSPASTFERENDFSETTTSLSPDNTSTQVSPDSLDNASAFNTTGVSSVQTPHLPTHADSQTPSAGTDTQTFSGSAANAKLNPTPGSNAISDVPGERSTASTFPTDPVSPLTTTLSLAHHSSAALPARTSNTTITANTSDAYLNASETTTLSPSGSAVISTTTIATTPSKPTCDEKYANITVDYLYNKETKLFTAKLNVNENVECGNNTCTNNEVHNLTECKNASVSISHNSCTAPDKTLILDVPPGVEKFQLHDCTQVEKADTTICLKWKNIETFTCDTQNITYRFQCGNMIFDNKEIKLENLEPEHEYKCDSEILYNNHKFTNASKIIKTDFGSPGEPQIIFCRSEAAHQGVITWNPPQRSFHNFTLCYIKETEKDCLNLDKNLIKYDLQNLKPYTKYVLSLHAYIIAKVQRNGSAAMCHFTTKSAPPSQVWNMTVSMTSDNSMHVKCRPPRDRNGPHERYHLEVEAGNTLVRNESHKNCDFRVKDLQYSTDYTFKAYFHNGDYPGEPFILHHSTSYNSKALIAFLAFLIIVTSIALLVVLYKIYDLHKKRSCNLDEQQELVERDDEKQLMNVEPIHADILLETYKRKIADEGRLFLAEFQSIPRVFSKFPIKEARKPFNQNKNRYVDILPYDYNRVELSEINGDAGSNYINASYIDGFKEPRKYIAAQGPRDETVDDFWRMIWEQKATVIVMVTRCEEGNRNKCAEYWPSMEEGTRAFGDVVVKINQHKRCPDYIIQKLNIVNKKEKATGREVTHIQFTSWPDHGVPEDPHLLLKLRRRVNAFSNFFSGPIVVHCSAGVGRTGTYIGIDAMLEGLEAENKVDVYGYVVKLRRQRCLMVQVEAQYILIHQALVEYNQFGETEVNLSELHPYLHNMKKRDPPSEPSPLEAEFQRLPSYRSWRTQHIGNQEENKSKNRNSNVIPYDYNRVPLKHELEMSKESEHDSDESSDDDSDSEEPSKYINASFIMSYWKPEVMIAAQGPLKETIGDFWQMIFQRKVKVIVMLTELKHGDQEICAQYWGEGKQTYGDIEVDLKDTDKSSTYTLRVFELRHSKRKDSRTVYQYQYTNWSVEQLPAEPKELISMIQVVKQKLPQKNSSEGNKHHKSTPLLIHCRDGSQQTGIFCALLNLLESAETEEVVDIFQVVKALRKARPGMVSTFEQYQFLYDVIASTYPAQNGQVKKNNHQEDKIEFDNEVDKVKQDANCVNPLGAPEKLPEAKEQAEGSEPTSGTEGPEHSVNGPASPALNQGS
Chain of Protein Phosphatase, PP2A (P67775 whole entry): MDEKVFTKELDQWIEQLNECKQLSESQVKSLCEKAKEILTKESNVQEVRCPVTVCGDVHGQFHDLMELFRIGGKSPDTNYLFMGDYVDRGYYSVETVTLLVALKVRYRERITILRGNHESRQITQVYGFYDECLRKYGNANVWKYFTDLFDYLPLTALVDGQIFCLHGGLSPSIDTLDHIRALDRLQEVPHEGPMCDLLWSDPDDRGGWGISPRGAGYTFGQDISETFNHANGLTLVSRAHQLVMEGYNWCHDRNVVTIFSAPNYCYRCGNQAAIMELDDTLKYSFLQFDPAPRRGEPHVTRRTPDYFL
T2 sequence (Q60492 whole entry): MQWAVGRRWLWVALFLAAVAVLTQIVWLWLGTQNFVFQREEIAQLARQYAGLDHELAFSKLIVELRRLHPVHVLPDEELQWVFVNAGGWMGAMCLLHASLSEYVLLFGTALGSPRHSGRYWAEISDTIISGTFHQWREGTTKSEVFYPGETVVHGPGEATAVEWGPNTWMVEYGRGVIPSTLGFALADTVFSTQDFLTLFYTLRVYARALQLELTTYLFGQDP
Chain of Dopamine Transporter (H0WCX4 1-619): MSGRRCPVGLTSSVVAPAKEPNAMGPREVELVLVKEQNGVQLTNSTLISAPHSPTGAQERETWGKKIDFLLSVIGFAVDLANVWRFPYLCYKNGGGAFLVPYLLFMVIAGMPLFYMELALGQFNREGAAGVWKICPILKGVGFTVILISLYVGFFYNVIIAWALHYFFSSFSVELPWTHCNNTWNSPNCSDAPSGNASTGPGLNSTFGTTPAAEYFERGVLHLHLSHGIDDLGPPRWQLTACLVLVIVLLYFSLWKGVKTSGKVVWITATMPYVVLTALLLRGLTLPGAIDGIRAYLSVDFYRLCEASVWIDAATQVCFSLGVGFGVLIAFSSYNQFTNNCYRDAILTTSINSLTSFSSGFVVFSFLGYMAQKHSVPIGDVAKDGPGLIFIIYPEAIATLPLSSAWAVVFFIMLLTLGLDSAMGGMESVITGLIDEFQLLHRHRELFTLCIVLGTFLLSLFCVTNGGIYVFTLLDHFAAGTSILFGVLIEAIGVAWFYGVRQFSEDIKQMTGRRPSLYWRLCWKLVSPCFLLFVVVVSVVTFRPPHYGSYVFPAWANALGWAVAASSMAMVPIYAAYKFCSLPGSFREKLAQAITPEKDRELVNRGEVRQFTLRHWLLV

Consider `O=[N+]([O-])c1ccc(CSc2ncnc3c2ncn3[C@@H]2O[C@H](CO)[C@@H](O)[C@H]2O)cc1` [NBTI], for which, in experiment [1], the Ki was 0.331 nM.

As for `CC[C@H](C)[C@@H]1NC(=O)[C@H](Cc2ccc(O)cc2)NC(=O)[C@@H](N)CSSC[C@@H](C(=O)N2CCC[C@H]2C(=O)N[C@@H](CC(C)C)C(=O)NCC(N)=O)NC(=O)[C@H](CC(N)=O)NC(=O)[C@H](CCC(N)=O)NC1=O` [Oxytocin], on Oxytocin, the Ki worked out at […].

Turning to `CCCCC[C@@H](O)/C=C/[C@H]1C[C@H]2C[C@@H]([C@@H]1C/C=C\CCCC(=O)O)C2(C)C` [Pinane-thromboxane A2], the Ki at Thromboxane A2 amounted to 30.3 nM.

`CCCN1CCC[C@H](c2cccc(O)c2)C1` [R(+)-3-PPP HCl]: the Ki at Sigma 1 turned out to be 1.27 nM.

For the compound `NCCNC(=O)c1ncsc1-c1cccc(F)c1` [Ro 41-1049 HCl], the Ki in [2] was found to be 1.08 nM.

As to `C[C@H](N)C(=O)NCC(=O)N[C@H]1CSSC[C@@H](C(=O)O)NC(=O)[C@H](CO)NC(=O)[C@H]([C@@H](C)O)NC(=O)[C@H](Cc2ccccc2)NC(=O)[C@H]([C@@H](C)O)NC(=O)[C@H](CCCCN)NC(=O)[C@H](Cc2c[nH]c3ccccc23)NC(=O)[C@H](Cc2ccccc2)NC(=O)[C@H](Cc2ccccc2)NC(=O)[C@H](CC(N)=O)NC(=O)[C@H](CCCCN)NC1=O` [Somatostatin], the Ki in experiment [3] came to 0.768 nM.

In the case of `C[C@H]1[C@H](C)CC[C@]2(C(=O)O)CC[C@]3(C)C(=CC[C@@H]4[C@@]5(C)CC[C@H](O)C(C)(C)[C@@H]5CC[C@]43C)[C@H]12` [Ursolic Acid], at Elastase, the Ki is 2320 nM.

For the compound `Cc1[nH]cnc1CCC(=O)c1cn(C)c2ccccc12` [[^3H]-GR65630], on Serotonin, 5HT3, the Kd was determined as 0.35 nM.

As for `COC(=O)[C@H]1[C@@H](c2ccc(F)cc2)C[C@@H]2CC[C@H]1N2C` [[^3H]-WIN 35-428], the Kd at Dopamine Transporter stood at 28 nM.

For `C[N+](C)(C)CCC(=O)c1ccc2ccccc2c1` [beta-NETA], the Ki in experiment [4] turned out to be 425 nM.

As for (3MeHis2) TRH, the Ki in experiment [5] stood at 175 nM.

(+)-MK-801 HMaleate: the Ki was 2.33 nM on Glutamate, MK-801 Site and 8.96 nM in experiment [6].

Take (Phe)(Me)2A6,8,L9AVP: on Vasopressin, V1A, the Ki was determined as 0.128 nM.

Ammonium Molybdate: the Ki in [7] amounted to 117 nM; in experiment [8] it was 90.5 µM; in [9], 30.9 nM; in [10] it was 313 nM; in [11] it was 41.3 nM.

Consider Angiotensin II (Human), for which the Ki at Angiotensin II, AT2 was 0.578 nM.

With CCK-8 (sulfated), the Ki is 0.0228 nM in experiment [12] and 0.479 nM in experiment [13].

With Calyculin, the Ki in experiment [14] came out at 0.722 nM.

On to Charybdotoxin, for which, in experiment [15], the Ki came to 0.204 nM.

In the case of Substance P, the Ki on Neurokinin, NK1 turned out to be 13 nM.

As for VIP, the Ki in experiment [16] is 1.9 nM.

For the compound w-Conotoxin GVIA, the Ki on Calcium Channel, Type N worked out at 0.0124 nM.

Usually Kd stands for the equilibrium constant for the complex coming apart.
